Measured values from patent US7932036B1, “Methods of determining acute myeloid leukemia response to treatment with farnesyltransferase” (Veridex, LLC, priority 2008, dated 2011).

Columns and labels:
[1] = tested on: previously untreated, poor-risk acute myeloid leukemia (AML); assay: Phase 2 study of tipifarnib in older adults with previously untreated, poor-risk AML: clinical response and overall survival; assay type: in vivo, human
Text: The current study utilized 67 bone marrow samples collected from an open label, multicenter, non-comparative phase 2 study investigating the efficacy and safety of farnesyltransferase inhibition with tipifarnib (R115777, ZARNESTRA®) in 158 older adults with previously untreated, poor-risk AML. The clinical results have been published elsewhere. Lancet et al. (2006).
Lancet et al. (2006). Briefly, HI was defined as any bone marrow blast count less than 5% or a reduction in bone marrow blasts by at least half. Progressive disease (PD) was defined as either >50% increase in bone marrow or circulating blast % from baseline, or new appearance of circulating blasts (on at least 2 consecutive occasions). Stable disease (SD) was defined as any response not meeting CR, PR, HI, or PD criteria.
This study examined gene expression profiles of leukemic bone marrow samples from patients enrolled in a Phase 2 clinical trial of the farnesyltransferase inhibitor tipifarnib in elderly patients with previously untreated poor-risk acute myelogenous leukemia. Lancet et al. (2006). Bone marrow from 67 patients was collected before treatment with tipifarnib and leukemic myeloid cells were enriched by Ficoll-density centrifugation (Table 1). Good quality total RNA from 13 responders (9 CR, 4 HI), 8 stable disease and 13 progressive disease patients was amplified, labeled, and hybridized to the Affymetrix U133A GeneChip. A total of 30 samples were evaluated by qPCR for validation of specific genes and 32 samples were evaluated for N-Ras mutational status.

[2] = tested on: relapsed or refractory AML; assay: Independent set of 54 relapsed/refractory AML patients treated with tipifarnib; assay type: in vivo, human; details: for difference in overall survival between predicted responders and progressors: relapsed/refractory AML
Text: We next performed external validation of the TSP classifier in an independent microarray dataset comprising of 54 relapsed/refractory AML patient samples. 20070048782. Importantly, a diagnostic assay that aims to predict response to a cancer therapy should have a high sensitivity (and negative predictive value) since it is important to capture as many potential responders as possible. Therefore, to define an appropriate cutoff for testing the TSP classifier we considered the need to obtain a high sensitivity of predicting responders while maintaining an acceptable level of specificity. In the training set, the level of specificity that could be achieved ranged from approximately 30% to 100% when the sensitivity was set at 100% to 80%, respectively. To ensure the classifier would predict as many responders as possible we tested a conservative cutoff that provided a specificity of approximately 60% in the training set. When this cutoff was applied to the independent testing set of relapsed/refractory AML, the RASGRP1:APTX gene classifier stratified responders with 92% NPV and 27.6% PPV (compared to 18.5% prevalence) (FIG. 3C). The associated odds ratio for being a responder was 4.38.
In the absence of a larger independent set of newly diagnosed AML samples we also utilized 54 relapsed or refractory AML samples from our previous investigation as an independent testing set (20070048782). […] Since the prevalence of responders in that dataset was 18% this represents an improvement of overall response of approximately 50%. […] Importantly we found no association with the two-gene classifier and patient prognosis in an independent set of AML patients who were treated with chemotherapeutics. […] Further work needs to be done to clarify whether the RASGRP1:APTX expression ratio has utility for other classes of FTIs.

[3] = Kaplan Meier, RASGRP1 gene classifier, newly diagnosed AML (FIG. 1B)
[4] = RASGRP1:APTX qPCR classifier, cut-point 0, 30 newly diagnosed AML samples

## Cn1cncc1[C@@](N)(c1ccc(Cl)cc1)c1ccc2c(c1)c(-c1cccc(Cl)c1)cc(=O)n2C [tipifarnib]
[1]; [3]
  median overall survival of the responders: 386 days
  median overall survival of those with progressive disease: 68 days
[1]; [4]
  median overall survival of the predicted resistant patients: 82 days
  median overall survival of those classified as responders: 295 days
[1]; RASGRP1:APTX top scoring pair, training set, newly diagnosed AML
  difference in overall survival between predicted responders and non-responders: 357 days
[2]; 54 relapsed/refractory AML patient samples
  prevalence of responders: 18%
[2]; RASGRP1:APTX TSP classifier
  difference in overall survival between predicted responders and progressors: 98 days
[2]; RASGRP1 alone
  difference in overall survival between predicted responders and progressors: 56 days
[2]; two-gene classifier, relapsed or refractory AML
  median overall survival of predicted responders versus patients predicted to be resistant: approximately 3 fold
